# Laboratory results from PMC10239507, “Development of allosteric and selective CDK2 inhibitors for contraception with negative cooperativity to cyclin binding” (Nature Communications, 2023).
# Columns and labels:
# Assay in all cases: biochemical
# [1] = molecular target: T1, 371 kinases (kinase named in each endpoint) (Homo sapiens, UniProt O15146); settings: MUSK
# T1 construct: purchased Reaction Biology
# [2] = molecular target: T2, 371 kinases (kinase named in each endpoint) (Homo sapiens, UniProt Q8IYT8); settings: ULK2
# T2 construct: purchased Reaction Biology
# [3] = molecular target: T3, 371 kinases (kinase named in each endpoint) (Homo sapiens, UniProt Q96PY6); settings: NEK1
# T3 construct: purchased Reaction Biology
# [4] = molecular target: T4, 371 kinases (kinase named in each endpoint) (Homo sapiens, UniProt Q96S53); settings: TESK2
# T4 construct: purchased Reaction Biology
# [5] = molecular target: T5, 371 kinases (kinase named in each endpoint) (Homo sapiens, UniProt Q9Y463); settings: DYRK1B
# T5 construct: purchased Reaction Biology
# [6] = molecular target: T6, 371 kinases (kinase named in each endpoint) (Homo sapiens, UniProt P80192); settings: MLK1/MAP3K9
# T6 construct: purchased Reaction Biology
# [7] = molecular target: T7, 371 kinases (kinase named in each endpoint) (Homo sapiens, UniProt Q13237); settings: PKG2/PRKG2
# T7 construct: purchased Reaction Biology
# [8] = molecular target: T8, 371 kinases (kinase named in each endpoint) (Homo sapiens, UniProt O95819); settings: HGK/MAP4K4
# T8 construct: purchased Reaction Biology
# [9] = molecular target: T9, 371 kinases (kinase named in each endpoint) (Homo sapiens, UniProt O43781); settings: DYRK3
# T9 construct: purchased Reaction Biology
# [10] = molecular target: T10, 371 kinases (kinase named in each endpoint) (Homo sapiens, UniProt Q9UQB9); settings: AURORA C
# T10 construct: purchased Reaction Biology
# [11] = molecular target: T11, 371 kinases (kinase named in each endpoint) (Homo sapiens, UniProt Q9H422); settings: HIPK3
# T11 construct: purchased Reaction Biology
# [12] = molecular target: T12, 371 kinases (kinase named in each endpoint) (Homo sapiens, UniProt P19784); settings: CK2A2
# T12 construct: purchased Reaction Biology
# [13] = molecular target: T13, 371 kinases (kinase named in each endpoint) (Homo sapiens, UniProt P52564); settings: MKK6
# T13 construct: purchased Reaction Biology
# [14] = molecular target: T14, 371 kinases (kinase named in each endpoint) (Homo sapiens, UniProt P00519); settings: ABL1
# T14 construct: purchased Reaction Biology
# [15] = molecular target: T15, 371 kinases (kinase named in each endpoint) (Homo sapiens, UniProt Q15349); settings: RSK3
# T15 construct: purchased Reaction Biology
# [16] = molecular target: T16, 371 kinases (kinase named in each endpoint) (Homo sapiens, UniProt Q96L34); settings: MARK4
# T16 construct: purchased Reaction Biology
# [17] = molecular target: T17, 371 kinases (kinase named in each endpoint) (Homo sapiens, UniProt P36888); settings: FLT3
# T17 construct: purchased Reaction Biology
# [18] = molecular target: T18, 371 kinases (kinase named in each endpoint) (Homo sapiens, UniProt Q00535)
# T18 construct: purchased Reaction Biology
# [19] = molecular target: T19, 371 kinases (kinase named in each endpoint) (Homo sapiens, UniProt P42679); settings: CTK/MATK
# T19 construct: purchased Reaction Biology
# [20] = molecular target: T20, 371 kinases (kinase named in each endpoint) (Homo sapiens, UniProt O75460); settings: ERN1/IRE1
# T20 construct: purchased Reaction Biology
# [21] = molecular target: T21, 371 kinases (kinase named in each endpoint) (Homo sapiens, UniProt P28482); settings: ERK2/MAPK1
# T21 construct: purchased Reaction Biology
# [22] = molecular target: T22, 371 kinases (kinase named in each endpoint) (Homo sapiens, UniProt Q9HCP0); settings: CK1G1
# T22 construct: purchased Reaction Biology
# [23] = molecular target: T23, 371 kinases (kinase named in each endpoint) (Homo sapiens, UniProt Q6P5Z2); settings: PKN3/PRK3
# T23 construct: purchased Reaction Biology
# [24] = molecular target: T24, 371 kinases (kinase named in each endpoint) (Homo sapiens, UniProt P51956); settings: NEK3
# T24 construct: purchased Reaction Biology
# [25] = molecular target: T25, 371 kinases (kinase named in each endpoint) (Homo sapiens, UniProt O00238); settings: ALK6/BMPR1B
# T25 construct: purchased Reaction Biology
# [26] = molecular target: T26, 371 kinases (kinase named in each endpoint) (Homo sapiens, UniProt O14920); settings: IKKb/IKBKB
# T26 construct: purchased Reaction Biology
# [27] = molecular target: T27, 371 kinases (kinase named in each endpoint) (Homo sapiens, UniProt Q9UBS0); settings: P70S6KB/RPS6KB2
# T27 construct: purchased Reaction Biology
# [28] = molecular target: T28, 371 kinases (kinase named in each endpoint) (Homo sapiens, UniProt Q96PN8); settings: TSSK3/STK22C
# T28 construct: purchased Reaction Biology
# [29] = molecular target: T29, 371 kinases (kinase named in each endpoint) (Homo sapiens, UniProt Q9NY57); settings: STK32B/YANK2
# T29 construct: purchased Reaction Biology
# [30] = molecular target: T30, 371 kinases (kinase named in each endpoint) (Homo sapiens, UniProt Q9Y2U5); settings: MEKK2
# T30 construct: purchased Reaction Biology
# [31] = molecular target: T31, 371 kinases (kinase named in each endpoint) (Homo sapiens, UniProt O75582); settings: MSK1/RPS6KA5
# T31 construct: purchased Reaction Biology
# [32] = molecular target: T32, 371 kinases (kinase named in each endpoint) (Homo sapiens, UniProt P29376); settings: TYK1/LTK
# T32 construct: purchased Reaction Biology
# [33] = molecular target: T33, 371 kinases (kinase named in each endpoint) (Homo sapiens, UniProt P05129); settings: PKCG
# T33 construct: purchased Reaction Biology
# [34] = molecular target: T34, 371 kinases (kinase named in each endpoint) (Homo sapiens, UniProt P22694); settings: PKACB
# T34 construct: purchased Reaction Biology
# [35] = molecular target: T35, 371 kinases (kinase named in each endpoint) (Homo sapiens, UniProt Q9P289); settings: MST4
# T35 construct: purchased Reaction Biology
# [36] = molecular target: T36, 371 kinases (kinase named in each endpoint) (Homo sapiens, UniProt P35626); settings: GRK3
# T36 construct: purchased Reaction Biology
# T18 sequence (Q00535 whole entry): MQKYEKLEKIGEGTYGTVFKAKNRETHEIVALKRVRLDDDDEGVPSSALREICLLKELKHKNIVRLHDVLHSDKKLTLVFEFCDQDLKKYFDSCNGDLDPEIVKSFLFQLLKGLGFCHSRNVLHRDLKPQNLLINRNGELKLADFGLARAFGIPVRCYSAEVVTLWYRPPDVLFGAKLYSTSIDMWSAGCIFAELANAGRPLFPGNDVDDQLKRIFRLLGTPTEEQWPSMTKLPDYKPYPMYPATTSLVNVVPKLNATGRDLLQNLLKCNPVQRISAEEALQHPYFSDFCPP
# T4 sequence (Q96S53 whole entry): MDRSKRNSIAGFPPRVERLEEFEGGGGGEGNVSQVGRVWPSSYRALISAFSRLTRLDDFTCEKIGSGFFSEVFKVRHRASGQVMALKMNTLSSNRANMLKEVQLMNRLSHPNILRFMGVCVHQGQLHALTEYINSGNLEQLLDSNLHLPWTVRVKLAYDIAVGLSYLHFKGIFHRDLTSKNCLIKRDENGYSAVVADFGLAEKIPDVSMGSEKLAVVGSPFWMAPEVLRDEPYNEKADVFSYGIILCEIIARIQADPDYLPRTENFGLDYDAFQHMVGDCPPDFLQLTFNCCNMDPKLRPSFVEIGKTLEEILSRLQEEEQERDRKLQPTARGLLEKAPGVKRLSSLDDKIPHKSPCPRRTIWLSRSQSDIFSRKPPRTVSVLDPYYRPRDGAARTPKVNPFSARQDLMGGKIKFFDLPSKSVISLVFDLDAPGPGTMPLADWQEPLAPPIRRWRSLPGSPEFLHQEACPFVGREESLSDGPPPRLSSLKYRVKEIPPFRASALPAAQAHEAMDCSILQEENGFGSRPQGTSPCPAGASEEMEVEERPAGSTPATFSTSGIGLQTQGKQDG
# T27 sequence (Q9UBS0 whole entry): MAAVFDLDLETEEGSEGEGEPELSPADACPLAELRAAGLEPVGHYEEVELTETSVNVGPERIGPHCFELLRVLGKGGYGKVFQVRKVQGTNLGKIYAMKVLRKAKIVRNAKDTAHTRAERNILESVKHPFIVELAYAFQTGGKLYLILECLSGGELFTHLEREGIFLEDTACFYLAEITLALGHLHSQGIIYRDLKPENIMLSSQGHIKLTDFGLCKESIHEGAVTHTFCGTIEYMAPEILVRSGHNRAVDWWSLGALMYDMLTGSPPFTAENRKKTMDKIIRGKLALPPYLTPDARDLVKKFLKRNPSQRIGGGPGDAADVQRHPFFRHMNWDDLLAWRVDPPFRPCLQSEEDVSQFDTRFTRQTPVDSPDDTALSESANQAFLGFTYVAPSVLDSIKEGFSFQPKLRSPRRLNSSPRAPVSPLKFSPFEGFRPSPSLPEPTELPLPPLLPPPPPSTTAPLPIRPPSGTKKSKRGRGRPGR
# T20 sequence (O75460 19-977): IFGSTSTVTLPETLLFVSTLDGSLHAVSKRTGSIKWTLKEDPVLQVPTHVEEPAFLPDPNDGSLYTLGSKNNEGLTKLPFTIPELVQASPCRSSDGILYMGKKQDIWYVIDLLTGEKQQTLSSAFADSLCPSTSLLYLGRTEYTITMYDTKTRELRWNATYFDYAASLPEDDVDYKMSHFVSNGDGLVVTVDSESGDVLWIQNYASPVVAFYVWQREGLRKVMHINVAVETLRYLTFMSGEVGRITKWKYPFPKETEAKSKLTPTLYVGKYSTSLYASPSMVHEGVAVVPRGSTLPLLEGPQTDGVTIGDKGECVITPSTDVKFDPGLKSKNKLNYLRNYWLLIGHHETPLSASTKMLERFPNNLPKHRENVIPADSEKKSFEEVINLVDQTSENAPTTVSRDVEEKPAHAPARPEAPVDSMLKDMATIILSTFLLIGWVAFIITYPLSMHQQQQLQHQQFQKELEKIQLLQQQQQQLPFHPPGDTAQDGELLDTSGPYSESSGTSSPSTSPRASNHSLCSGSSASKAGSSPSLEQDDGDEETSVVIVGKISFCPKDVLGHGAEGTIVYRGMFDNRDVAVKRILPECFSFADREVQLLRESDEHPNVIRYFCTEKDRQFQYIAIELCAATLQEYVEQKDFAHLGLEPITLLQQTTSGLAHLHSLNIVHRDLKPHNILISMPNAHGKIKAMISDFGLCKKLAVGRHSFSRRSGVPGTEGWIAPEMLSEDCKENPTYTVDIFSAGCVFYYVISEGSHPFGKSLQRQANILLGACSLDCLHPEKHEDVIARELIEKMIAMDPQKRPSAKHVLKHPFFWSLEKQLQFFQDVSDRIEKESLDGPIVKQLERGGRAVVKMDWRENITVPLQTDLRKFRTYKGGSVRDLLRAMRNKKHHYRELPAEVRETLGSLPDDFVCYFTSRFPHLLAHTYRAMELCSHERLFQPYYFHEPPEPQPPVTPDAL
# T7 sequence (Q13237 whole entry): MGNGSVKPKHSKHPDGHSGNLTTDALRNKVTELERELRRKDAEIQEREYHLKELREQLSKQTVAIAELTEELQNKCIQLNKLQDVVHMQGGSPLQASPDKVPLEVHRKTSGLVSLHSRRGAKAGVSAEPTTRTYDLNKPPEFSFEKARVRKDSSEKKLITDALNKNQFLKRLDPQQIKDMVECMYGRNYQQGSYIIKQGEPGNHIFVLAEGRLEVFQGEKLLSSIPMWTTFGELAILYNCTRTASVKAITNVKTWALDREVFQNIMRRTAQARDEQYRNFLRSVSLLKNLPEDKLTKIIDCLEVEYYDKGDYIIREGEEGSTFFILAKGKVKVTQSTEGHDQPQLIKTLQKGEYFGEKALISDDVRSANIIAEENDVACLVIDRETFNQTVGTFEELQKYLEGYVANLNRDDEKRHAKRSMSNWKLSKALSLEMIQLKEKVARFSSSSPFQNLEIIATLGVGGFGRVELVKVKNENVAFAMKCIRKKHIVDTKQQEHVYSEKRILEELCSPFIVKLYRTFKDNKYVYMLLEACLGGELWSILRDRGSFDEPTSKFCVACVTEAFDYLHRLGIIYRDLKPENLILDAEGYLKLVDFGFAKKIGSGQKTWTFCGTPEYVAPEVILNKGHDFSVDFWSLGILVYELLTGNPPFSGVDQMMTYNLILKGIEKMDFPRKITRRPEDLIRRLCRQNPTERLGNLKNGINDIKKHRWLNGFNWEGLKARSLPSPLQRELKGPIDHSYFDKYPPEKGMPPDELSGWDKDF
# T24 sequence (P51956 whole entry): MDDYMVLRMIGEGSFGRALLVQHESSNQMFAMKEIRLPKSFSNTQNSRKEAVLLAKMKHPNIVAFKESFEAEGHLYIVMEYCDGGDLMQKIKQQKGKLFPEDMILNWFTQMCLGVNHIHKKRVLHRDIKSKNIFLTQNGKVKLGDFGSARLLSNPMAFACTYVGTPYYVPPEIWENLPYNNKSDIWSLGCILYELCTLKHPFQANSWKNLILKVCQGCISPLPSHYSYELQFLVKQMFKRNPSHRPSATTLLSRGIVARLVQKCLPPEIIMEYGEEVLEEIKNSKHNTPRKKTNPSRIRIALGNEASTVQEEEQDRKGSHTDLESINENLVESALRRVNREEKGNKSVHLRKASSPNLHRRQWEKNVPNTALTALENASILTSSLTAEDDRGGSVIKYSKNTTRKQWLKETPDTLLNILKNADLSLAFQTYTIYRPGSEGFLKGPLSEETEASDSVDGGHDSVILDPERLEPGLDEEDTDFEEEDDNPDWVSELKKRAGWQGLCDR
# T28 sequence (Q96PN8 whole entry): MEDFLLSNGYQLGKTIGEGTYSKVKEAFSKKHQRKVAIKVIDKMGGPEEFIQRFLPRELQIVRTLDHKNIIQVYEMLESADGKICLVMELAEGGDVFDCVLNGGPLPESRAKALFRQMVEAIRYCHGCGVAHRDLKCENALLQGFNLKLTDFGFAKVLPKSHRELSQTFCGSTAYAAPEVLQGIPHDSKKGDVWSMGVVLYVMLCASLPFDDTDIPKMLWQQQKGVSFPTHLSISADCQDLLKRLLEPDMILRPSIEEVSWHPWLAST
# T21 sequence (P28482 whole entry): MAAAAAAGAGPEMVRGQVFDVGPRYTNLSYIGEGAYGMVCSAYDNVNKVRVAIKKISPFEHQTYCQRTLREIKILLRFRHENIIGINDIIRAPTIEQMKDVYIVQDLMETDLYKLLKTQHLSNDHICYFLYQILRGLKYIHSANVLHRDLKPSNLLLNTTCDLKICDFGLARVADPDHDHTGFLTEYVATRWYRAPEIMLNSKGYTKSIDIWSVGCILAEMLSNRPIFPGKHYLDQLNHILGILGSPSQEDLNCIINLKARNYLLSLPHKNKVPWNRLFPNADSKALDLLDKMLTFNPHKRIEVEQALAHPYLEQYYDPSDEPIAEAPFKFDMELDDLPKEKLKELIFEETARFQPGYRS
smiles,measurement,setting,value
"O=C(O)c1cc(C(F)(F)F)ccc1NCCc1c[nH]c2cc(Br)ccc12 [Compound 5, 2-((2-(6-Bromo-1H-indol-3-yl)ethyl)amino)−5-(trifluoromethyl)benzoic Acid]",activity at 10 µM,[1],104.4 ± 1%
same,activity at 10 µM,[2],102.4 ± 0.4%
same,activity at 10 µM,[3],91.8 ± 2.3%
same,activity at 10 µM,[4],78.7 ± 0.8%
same,activity at 10 µM,[5],64.8 ± 1.1%
same,activity at 10 µM,[6],95.8 ± 0.2%
same,activity at 10 µM,[7],117 ± 7.9%
same,activity at 10 µM,[8],50.4 ± 0.4%
same,activity at 10 µM,[9],57.3 ± 2.4%
same,activity at 10 µM,[10],98 ± 0.2%
same,activity at 10 µM,[11],86.3 ± 2.3%
same,activity at 10 µM,[12],46.9 ± 0.5%
same,activity at 10 µM,[13],101 ± 0.2%
same,activity at 10 µM,[14],98.7 ± 0.5%
same,activity at 10 µM,[15],87 ± 1.4%
same,activity at 10 µM,[16],69.6 ± 1.3%
same,activity at 10 µM,[17],95.2 ± 1.6%
same,activity at 10 µM,[18]; CDK5/P25,48.6 ± 1.3%
same,activity at 10 µM,[18]; CDK5/P35,88.8 ± 0.3%
same,activity at 10 µM,[19],71.1 ± 3.8%
same,activity at 10 µM,[20],101 ± 0.6%
same,activity at 10 µM,[21],118 ± 3%
same,activity at 10 µM,[22],96.2 ± 0.3%
same,activity at 10 µM,[23],98.3 ± 1.2%
same,activity at 10 µM,[24],93.3 ± 0.4%
same,activity at 10 µM,[25],96.7 ± 0.2%
same,activity at 10 µM,[26],82.1 ± 0.2%
same,activity at 10 µM,[27],96.1 ± 1.6%
same,activity at 10 µM,[28],68.9 ± 0.2%
same,activity at 10 µM,[29],154.6 ± 0.7%
same,activity at 10 µM,[30],107.9 ± 0.2%
same,activity at 10 µM,[31],82.2 ± 0.5%
same,activity at 10 µM,[32],86.2 ± 1.1%
same,activity at 10 µM,[33],81.9 ± 1.6%
same,activity at 10 µM,[34],93.4 ± 0.4%
same,activity at 10 µM,[35],56 ± 0.2%
same,activity at 10 µM,[36],93.7 ± 1.2%
